Test results taken from patent US10590085B2, “Heterocyclic amides as kinase inhibitors” (GlaxoSmithKline Intellectual Property Development Limited, priority 2015, dated 2020).

Experiments:
[1] = tested on: TNF/zVAD induced temperature loss in mice; experiment: TNF-driven systemic inflammatory response syndrome model using TNF plus zVAD (temperature loss); assay type: in vivo, mouse
[2] = tested on: mouse L929 fibrosarcoma cells; experiment: necroptosis assay in L929 cells; assay type: cell-based; details: viability by cellular ATP (Cell Titer-Glo), read-out: mean pIC50, inhibition of necrosis in L929 cells (converted)
Method: (§1) The efficacy of RIP1 inhibitors can be tested […] in vitro using a human monocytic leukemia U937 or mouse L929 fibrosarcoma cells in a necroptosis assay. As determined using the method described in He, S. et al. 2009. Cell 137(6):1100-1111 and International Patent Appln. No. PCT/IB2014/059004, now, International Patent Appln. Pub.
(§2) Viability was measured by quantitating cellular levels of ATP using the Cell Titer-Glo kit. All data are means±standard deviation of the mean.

[3] = molecular target: T1, RIP1 kinase (Homo sapiens, UniProt Q13546); experiment: fluorescent polarization based binding assay; details: mean value, minimum of 2 experiments
T1 sequence (Q13546 1-375 limits assumed): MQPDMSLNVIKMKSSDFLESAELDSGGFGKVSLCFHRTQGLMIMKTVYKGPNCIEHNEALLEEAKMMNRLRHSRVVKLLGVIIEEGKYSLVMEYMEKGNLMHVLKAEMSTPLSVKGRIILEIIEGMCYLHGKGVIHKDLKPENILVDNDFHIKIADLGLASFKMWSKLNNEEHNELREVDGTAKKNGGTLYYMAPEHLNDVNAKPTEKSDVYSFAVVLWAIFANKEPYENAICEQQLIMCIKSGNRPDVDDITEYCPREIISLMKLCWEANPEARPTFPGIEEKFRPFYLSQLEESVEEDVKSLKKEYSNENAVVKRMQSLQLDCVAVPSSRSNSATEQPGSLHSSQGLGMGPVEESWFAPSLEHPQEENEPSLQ
Excerpt: A fluorescent polarization based binding assay was used to asses the activity of the compounds of this invention, the details of which are disclosed in International Patent Appln. No. PCT/IB2014/059004, now, International Patent Appln. Pub.

[4] = tested on: human monocytic leukemia U937 cells; experiment: necroptosis assay in U937 cells; assay type: cell-based; details: viability by cellular ATP (Cell Titer-Glo); for IC50: Homo sapiens, U-937, U937 cells, read-out: mean pIC50, inhibition of necrosis in U937 cells (converted)
Method: as §1, §2

[5] = tested on: TNF induced temperature loss in mice; experiment: TNF (alone) version of the systemic inflammatory response syndrome model (temperature loss); assay type: in vivo, mouse
Excerpt: The model can be run in a long modality (using TNF alone i.v.) which results in the termination of the study in ˜8 hrs (under IACUC guidelines for temperature loss). […] All data are shown as means±standard error of the mean.

[6] = background statement; cited from earlier work
[7] = tested on: RIP1 kinase; details: ischemic brain injury, retinal ischemia/reperfusion injury, Huntington's disease, renal ischemia reperfusion injury, cisplatin induced kidney injury, traumatic brain injury; cited from earlier work
[8] = 10 mg/kg PO, pre-dosed 15 minutes before i.v. mouse TNF and zVAD

CC(C)(C)C(=O)N1N=CC[C@H]1c1ccccc1 [Example 13, (S)-2,2-dimethyl-1-(5-phenyl-4,5-dihydro-1H-pyrazol-1-yl)propan-1-one]
% Inhibition ([1]; 20 mg/kg IP, pre-dosed 15 minutes before i.v. mouse TNF (30 μg/mouse) and zVAD (0.4 mg/mouse)): 80%
IC50 [2]: ~5.01 nM

CC(C)(C)C(=O)N1N=CC[C@H]1c1cncc(F)c1 [Example 15, (S)-1-(5-(5-fluoro-pyridin-3-yl)-4,5-dihydro-1H-pyrazol-1-yl)-2,2-dimethyl-propan-1-one]
IC50 [3]: ~79.4 nM
mean pIC50, inhibition of necrosis in U937 cells [4]: ~7.2
IC50 [2]: ~20 nM

CC(C)(C)C(=O)N1N=CC[C@H]1c1ccccn1 [Example 48, (S)-2,2-dimethyl-1-(5-(pyridin-2-yl)-4,5-dihydro-1H-pyrazol-1-yl)-propan-1-one]
% Inhibition ([1]; 0.5 mg/kg IP, pre-dosed 15 minutes before i.v. mouse TNF and zVAD): 17%
% Inhibition ([1]; 5 mg/kg IP, pre-dosed 15 minutes before i.v. mouse TNF and zVAD): 52%
% Inhibition ([1]; 50 mg/kg IP, pre-dosed 15 minutes before i.v. mouse TNF and zVAD): 91%
IC50 [2]: ~200 nM

Cc1ccc([C@@H]2CC=NN2C(=O)C(C)(C)C)cn1 [Example 50, (S)-2,2-dimethyl-1-(5-(6-methylpyridin-3-yl)-4,5-dihydro-1H-pyrazol-1-yl)propan-1-one]
IC50 [3]: ~631 nM
IC50 [4]: ~158 nM
IC50 [2]: ~20 nM

CC(C)(C)C(=O)N1N=CC[C@H]1c1ccc(Cl)cc1 [Example 66, (S)-1-(5-(4-chlorophenyl)-4,5-dihydro-1H-pyrazol-1-yl)-2,2-dimethyl-propan-1-one]
% Inhibition ([1]; 0.1 mg/kg IP, pre-dosed 15 minutes before i.v. mouse TNF and zVAD): 52%
IC50 [2]: ~0.00158 nM

CC(C)(C)C(=O)N1N=CC[C@H]1c1ccc2[nH]ccc2c1 [Example 91, (S)-1-(5-(1H-indol-5-yl)-4,5-dihydro-1H-pyrazol-1-yl)-2,2-dimethylpropan-1-one]
IC50 [3]: ~251 nM
IC50 [4]: ~100 nM
IC50 [2]: ~251 nM

CC(C)(C)C(=O)N1N=CC[C@H]1c1cccc2[nH]ccc12 [Example 93, (S)-1-(5-(1H-indol-4-yl)-4,5-dihydro-1H-pyrazol-1-yl)-2,2-dimethylpropan-1-one]
IC50 [3]: ~100 nM
mean pIC50, inhibition of necrosis in U937 cells [4]: ~7.0
IC50 [2]: ~79.4 nM

O=C(c1cnsn1)N1CCC(C(=O)N2N=CCC2c2ccccc2)CC1 (stereo not shown) [Example 155, (1-(1,2,5-thiadiazole-3-carbonyl)piperidin-4-yl)(5-phenyl-4,5-dihydro-1H-pyrazol-1-yl)methanone]
% Inhibition [1, 8]: 49%
IC50 [4]: 1 to 100 nM

Cc1ocnc1C(=O)N1CCC(C(=O)N2N=CCC2c2ccccc2)CC1 (stereo not shown) [Example 158, (5-methyloxazol-4-yl)(4-(5-phenyl-4,5-dihydro-1H-pyrazole-1-carbonyl)piperidin-1-yl)methanone]
% Inhibition [1, 8]: 77%
IC50 [4]: 1 to 100 nM

CC(=O)N1CCC(C(=O)N2N=CCC2c2ccccc2)CC1 (stereo not shown) [Example 193, 1-(4-(5-phenyl-4,5-dihydro-1H-pyrazole-1-carbonyl)piperidin-1-yl)ethanone]
% Inhibition ([1]; 140 mg/kg PO, pre-dosed 15 minutes before i.v. mouse TNF and zVAD): 94%

CC(=O)N1CCC(C(=O)N2N=CC[C@H]2c2cc(F)cc(F)c2)CC1 [Example 203, (S)-1-(4-(5-(3,5-difluorophenyl)-4,5-dihydro-1H-pyrazole-1-carbonyl)piperidin-1-yl)ethanone]
IC50 [3]: ~31.6 nM
% Inhibition ([1]; 1 mg/kg PO, pre-dosed 15 minutes before i.v. mouse TNF and zVAD): 9%
% Inhibition [1, 8]: 46%
% Inhibition ([1]; 100 mg/kg PO, pre-dosed 15 minutes before i.v. mouse TNF and zVAD): 88%
% Inhibition ([5]; 1 mg/kg orally pre-dosed 15 minutes before i.v. mouse TNF (30 μg/mouse) alone): −14%
% Inhibition ([5]; 10 mg/kg orally pre-dosed 15 minutes before i.v. mouse TNF alone): 45%
% Inhibition ([5]; 100 mg/kg orally pre-dosed 15 minutes before i.v. mouse TNF alone): 86%

CN1C(=O)C(Cc2c[nH]c3ccccc23)NC1=S (stereo not shown) [Necrostatin-1]
oral bioavailability [6]: poor
effectiveness in alleviating disease [7]: effective
